Earlier results as cited in paper PMC8288134, “Synthesis, potential antitumor activity, cell cycle analysis, and multitarget mechanisms of novel hydrazones incorporating a 4-methylsulfonylbenzene scaffold: a molecular docking study” (Journal of Enzyme Inhibition and Medicinal Chemistry, 2021).

Tests used:
NCI-H226 = tested on: NCI-H226; design: method as in https://dtp.cancer.gov/dtpstandard/dwindex/index.jsp; details: reference drugs, ref https://dtp.cancer.gov/dtpstandard/dwindex/index.jsp; cited from earlier work
SNB-75 = tested on: SNB-75; design: method as in https://dtp.cancer.gov/dtpstandard/dwindex/index.jsp; details: reference drugs, ref https://dtp.cancer.gov/dtpstandard/dwindex/index.jsp; cited from earlier work
[1] = tested on: full panel of 59 cancer cell lines; details: cited from earlier work; for GI50: read-out: GI50 MG-MID (full panel mean-graph midpoint), reference drugs, ref https://dtp.cancer.gov/dtpstandard/dwindex/index.jsp; for TGI MG-MID (full panel mean-graph midpoint): reference drugs, ref https://dtp.cancer.gov/dtpstandard/dwindex/index.jsp
MDA-MB-468 = tested on: MDA-MB-468; design: method as in https://dtp.cancer.gov/dtpstandard/dwindex/index.jsp; details: reference drugs, ref https://dtp.cancer.gov/dtpstandard/dwindex/index.jsp; cited from earlier work
KM12 = tested on: KM12; design: method as in https://dtp.cancer.gov/dtpstandard/dwindex/index.jsp; details: reference drugs, ref https://dtp.cancer.gov/dtpstandard/dwindex/index.jsp; cited from earlier work
BT-549 = tested on: BT-549; design: method as in https://dtp.cancer.gov/dtpstandard/dwindex/index.jsp; details: reference drugs, ref https://dtp.cancer.gov/dtpstandard/dwindex/index.jsp; cited from earlier work
CAKI-1 = tested on: CAKI-1; design: method as in https://dtp.cancer.gov/dtpstandard/dwindex/index.jsp; details: reference drugs, ref https://dtp.cancer.gov/dtpstandard/dwindex/index.jsp; cited from earlier work
TK-10 = tested on: TK-10; design: method as in https://dtp.cancer.gov/dtpstandard/dwindex/index.jsp; details: reference drugs, ref https://dtp.cancer.gov/dtpstandard/dwindex/index.jsp; cited from earlier work
NCI-H522 = tested on: NCI-H522; design: method as in https://dtp.cancer.gov/dtpstandard/dwindex/index.jsp; details: reference drugs, ref https://dtp.cancer.gov/dtpstandard/dwindex/index.jsp; cited from earlier work
HCT-116 = tested on: HCT-116; design: method as in https://dtp.cancer.gov/dtpstandard/dwindex/index.jsp; details: reference drugs, ref https://dtp.cancer.gov/dtpstandard/dwindex/index.jsp; cited from earlier work
MDA-MB-435 = tested on: MDA-MB-435; design: method as in https://dtp.cancer.gov/dtpstandard/dwindex/index.jsp; details: reference drugs, ref https://dtp.cancer.gov/dtpstandard/dwindex/index.jsp; cited from earlier work
NCI-H322M = tested on: NCI-H322M; design: method as in https://dtp.cancer.gov/dtpstandard/dwindex/index.jsp; details: reference drugs, ref https://dtp.cancer.gov/dtpstandard/dwindex/index.jsp; cited from earlier work
[2] = tested on: breast cancer tumour cell lines; details: cited from earlier work; for GI50: read-out: GI50 (subpanel average), reference drugs, ref https://dtp.cancer.gov/dtpstandard/dwindex/index.jsp
K-562 = tested on: K-562; design: method as in https://dtp.cancer.gov/dtpstandard/dwindex/index.jsp; details: reference drugs, ref https://dtp.cancer.gov/dtpstandard/dwindex/index.jsp; cited from earlier work
NCI-H23 = tested on: NCI-H23; design: method as in https://dtp.cancer.gov/dtpstandard/dwindex/index.jsp; details: reference drugs, ref https://dtp.cancer.gov/dtpstandard/dwindex/index.jsp; cited from earlier work
MALME-3M = tested on: MALME-3M; design: method as in https://dtp.cancer.gov/dtpstandard/dwindex/index.jsp; details: reference drugs, ref https://dtp.cancer.gov/dtpstandard/dwindex/index.jsp; cited from earlier work
HT29 = tested on: HT29; design: method as in https://dtp.cancer.gov/dtpstandard/dwindex/index.jsp; details: reference drugs, ref https://dtp.cancer.gov/dtpstandard/dwindex/index.jsp; cited from earlier work
[3] = tested on: CNS cancer tumour cell lines; details: cited from earlier work; for GI50: read-out: GI50 (subpanel average), reference drugs, ref https://dtp.cancer.gov/dtpstandard/dwindex/index.jsp; for TGI (subpanel average): reference drugs, ref https://dtp.cancer.gov/dtpstandard/dwindex/index.jsp
SR = tested on: SR; design: method as in https://dtp.cancer.gov/dtpstandard/dwindex/index.jsp; details: reference drugs, ref https://dtp.cancer.gov/dtpstandard/dwindex/index.jsp; cited from earlier work
T-47D = tested on: T-47D; design: method as in https://dtp.cancer.gov/dtpstandard/dwindex/index.jsp; details: reference drugs, ref https://dtp.cancer.gov/dtpstandard/dwindex/index.jsp; cited from earlier work
M14 = tested on: M14; design: method as in https://dtp.cancer.gov/dtpstandard/dwindex/index.jsp; details: reference drugs, ref https://dtp.cancer.gov/dtpstandard/dwindex/index.jsp; cited from earlier work
HL-60(TB) = tested on: HL-60(TB); design: method as in https://dtp.cancer.gov/dtpstandard/dwindex/index.jsp; details: reference drugs, ref https://dtp.cancer.gov/dtpstandard/dwindex/index.jsp; cited from earlier work
[4] = tested on: renal cancer tumour cell lines; details: cited from earlier work; for GI50: read-out: GI50 (subpanel average), reference drugs, ref https://dtp.cancer.gov/dtpstandard/dwindex/index.jsp; for TGI (subpanel average): reference drugs, ref https://dtp.cancer.gov/dtpstandard/dwindex/index.jsp
[5] = read-out: LC50 (subpanel average), reference drugs, ref https://dtp.cancer.gov/dtpstandard/dwindex/index.jsp

Structure (SMILES)	GI50 (NCI-H226)	GI50 (SNB-75)	GI50 [1]	TGI MG-MID (full panel mean-graph midpoint) [1]	GI50 (MDA-MB-468)	GI50 (KM12)	GI50 (BT-549)	GI50 (TK-10)	GI50 (NCI-H522)	GI50 (HCT-116)	GI50 (MDA-MB-435)	GI50 (NCI-H322M)	GI50 (K-562)	GI50 (NCI-H23)	GI50 (MALME-3M)	GI50 (HT29)	GI50 (SR)	GI50 (T-47D)	GI50 (M14)	GI50 (HL-60(TB))	also measured
C#Cc1cccc(Nc2ncnc3cc(OCCOC)c(OCCOC)cc23)c1 [Erlotinib, erlotinib]	39.8 µM	12.6 µM	7.68 µM	66.3 µM	126 nM	79.4 µM	31.6 µM	251 nM	1000 nM	6.31 µM	19.9 µM	100 nM	31.6 µM	31.6 µM	1.58 µM	63.1 µM	10 µM	3.98 µM	6.31 µM	25.1 µM	CC50 ([1]; read-out: LC50 MG-MID (full panel mean-graph midpoint), reference drugs, ref https://dtp.cancer.gov/dtpstandard/dwindex/index.jsp): 95.6 µM; GI50 (CAKI-1): 0.199 µM; GI50 [2]: 24.7 µM; CC50 [2, 5]: 96.4 µM; GI50 [3]: 17 µM; CC50 [3, 5]: > 100 µM; TGI (subpanel average) [3]: 82.11 µM; GI50 [4]: 2460 nM; CC50 [4, 5]: 89.2 µM; TGI (subpanel average) [4]: 42.59 µM
COc1cc2ncnc(Nc3ccc(F)c(Cl)c3)c2cc1OCCCN1CCOCC1 [Gefitinib, gefitinib]	3.98 µM		2.1 µM	14.3 µM	12.6 nM	10 µM	3.16 µM	794 nM	1000 nM	3.16 µM	3.16 µM	63 nM	2.51 µM	2.51 µM	3.98 µM	3.98 µM	3.16 µM	7.94 µM	2 µM	1 µM	GI50 [2]: 4.67 µM; TGI (subpanel average) ([2]; reference drugs, ref https://dtp.cancer.gov/dtpstandard/dwindex/index.jsp): 18.62 µM; GI50 [3]: 5.64 µM; TGI (subpanel average) [3]: 19.62 µM; GI50 [4]: 1410 nM; TGI (subpanel average) [4]: 12.50 µM
CS(=O)(=O)c1ccc(C(=O)Nc2ccc(Cl)c(-c3ccccn3)c2)c(Cl)c1 [Vismodegib, vismodegib]	50.1 µM	25.1 µM			20000 nM	31.6 µM		63100 nM	25100 nM	50.1 µM	31.6 µM	100000 nM	31.6 µM	50.1 µM	39.8 µM	25.1 µM	39.8 µM	31.6 µM	31.6 µM	31.6 µM	GI50 (CAKI-1): 79.4 µM
